Columns and labels:
[1] = test system: carbonyl reductase from Lactococcus lactis; assay: CRLL activity assay (decrease of NADPH absorption); substrate table of the isolated carbonyl reductase; type: biochemical; conditions: Substrate (20 mM); for spec. Act. (U/mg): activity per protein (0.37, 5.5 or 6.6 mg/mL)
Source text: The construct crll-pkk223-3 as well as crll-his-pkk223-3 were both transformed separately into the E. coli host strain HB101 for expression.

[2] = target: T1, carbonyl reductase from Lactococcus lactis (LL-CR) (Lactococcus lactis, UniProt Q9CJ60); assay: Oxidation of secondary alcohols to ketones by LL-CR (enantiospecificity); type: biochemical
[3] = target: T1, carbonyl reductase from Lactococcus lactis (LL-CR); assay: Purified CRLL activity in aqueous-organic tunable solvents (OATS); type: biochemical
Procedure: As LL-CR requires organic buffers for stability, such as HEPES or triethanolamine, runs were conducted in partially organic systems using a buffer system of 200 mM NH4CHO3 and 50 mM HEPES at pH 7.0.

[4] = target: T1, carbonyl reductase from Lactococcus lactis (LL-CR); assay: Enzyme characterisation of purified LL-CR (KM, vmax, kcat, pH and T optima); type: biochemical
[5] = substrate: CC(=O)c1ccccc1; assay: as above; type: biochemical, Lactococcus lactis; conditions: other: pH 7.0 and 30° C.

Molecule	Activity (U/mL) [1]	spec. Act. (U/mg) [1]	further results
O=C1CCCC2CCCCC12 (centres unmarked) [1-decalone]	5.29 U/mL	14.3 U/mg	
CCC=O [propionaldehyde]	69 U/mL	10.45 U/mg	
CC1CC(=O)CC(C)(C)C1 (centres unmarked) [3,3,5-trimethyl-CHone]	0.24 U/mL	0.6486 U/mg	
C[C@@H](O)c1ccccc1 [(R)-1-phenyl-1-ethanol]			oxidation of secondary alcohol to the respective ketone [2]: can oxidize
CCCC(=O)CC(=O)OCC [ethyl 3-oxohexanoate]	9.64 U/mL	26.05 U/mg	
CCOC(=O)CC(C)=O [ethyl acetoacetate]	7.07 U/mL	19.11 U/mg	
CCOCCO [ethoxyethanol]	0.0128 U/mL	0.03459 U/mg	
CC(C)O [isopropanol]			specific activity of LL-CR on isopropanol ([3]; regeneration substrate, extends beyond 50% solvent content): 2-4 U/mg protein
CCCCC(C)=O [2-hexanone]	1.28 U/mL	3.459 U/mg	
CCCCCCCC=O [octylaldehyde]	10.93 U/mL	1.656 U/mg	
CCCC[C@@H](C)O [(R)-2-hexanol]			oxidation of secondary alcohol to the respective ketone [2]: can oxidize
CC(C)=O [acetone]	8.36 U/mL	22.59 U/mg	
CC(=O)C(C)(C)C [pinacolone]	22.5 U/mL	3.409 U/mg	
CC(=O)CCC(C)=O [acetonylacetone]	57.88 U/mL	8.77 U/mg	
COC(=O)C(=O)c1ccccc1 [Methyl benzoylformate]	3.86 U/mL	0.5848 U/mg	
CC(=O)C(C)C [3-methyl-2-butanone]	12.06 U/mL	32.59 U/mg	
CCOC(=O)C(C)=O [ethyl pyruvate]	16.32 U/mL	2.473 U/mg	
OCCOCCO [diethyleneglycol]	0.38 U/mL	1.027 U/mg	
CC(O)CO (centres unmarked) [1,2-propanediol]	0.025 U/mL	0.06757 U/mg	

Molecule	Activity (U/mL) [1]	spec. Act. (U/mg) [1]	further results
O=Cc1ccccc1 [benzaldehyde]	8.3 U/mL	1.258 U/mg	
O=C(O)C(=O)c1ccccc1 [benzoylformate]	0 U/mL	0 U/mg	
COC(=O)CC(C)=O [Methyl acetoacetate]	36.7 U/mL	5.561 U/mg	
CC(=O)CO [hydroxyacetone]	0.77 U/mL	2.081 U/mg	
CCCC=O [butyraldehyde]	12.7 U/mL	34.32 U/mg	
t-butylcyclohexanone	0 U/mL	0 U/mg	
CC(=O)CC(C)=O [2,4-pentane-dione]	90.77 U/mL	13.75 U/mg	
CC(=O)COc1ccccc1 [Phenoxy-2-propanone]	10.61 U/mL	28.68 U/mg	
O=C1CCCCC1 [cyclohexanone]	49 U/mL	7.424 U/mg	
CC(=O)CC(C)C [4-methyl-2-pentanone]	21.7 U/mL	3.288 U/mg	
tetralone	3.2 U/mL	0.4848 U/mg	
CCOC(=O)C(=O)c1ccccc1 [ethyl benzoylformate]	11.25 U/mL	1.705 U/mg	
O=C1CCc2ccccc21 [1-indanone]		0 U/mg	
CC1(C)COC(=O)C1=O [ketopantolactone]	9.49 U/mL	25.65 U/mg	
CCC(=O)c1ccccc1 [propiophenone]	2.2 U/mL	0.4 U/mg	
CC(=O)c1ccccc1 [acetophenone]	53 U/mL	8.03 U/mg	
CCOC(=O)CC(=O)c1ccccc1 [ethyl benzoylacetate]	4.98 U/mL	13.46 U/mg	
CCCCCC=O [hexylaldehyde]	45.82 U/mL	6.942 U/mg	
carbonyl reductase from Lactococcus lactis (LL-CR) (Lactococcus lactis subsp. lactis Il1403) (protein) MKTLITGENKGIGFALAQNLGHRGYEVLVGARNETRGQEAVEKLKAEGITAKFVKVDLDDLNQLTSLSALTDIDLLINNAGISGNIHSDKGHLDMEKSAFDYSTTDLEETIKTNFLGTHAVIKELLPHSLTENAKIINITVPVSQEYWMPLAYVTSKAAQNAMTFAFGHQFKKDKSKKQIFAVMPGAVATDLNGAKVGDSPFVKSPEETAQMISKFIFDDKNHNAQIINFDGTIYDNYEPGLRNKVIKDVAKNGLKRKFKK			T optimum [4]: 40 °C; pH optimum [4]: 6.5; calculated kcat ([4]; pH 7.0 and 30° C.): 24 s⁻¹; vmax ([4]; pH 7.0 and 30° C.): 80 U/mg pure protein; organic solvent content at which enzyme is active ([3]; 200 mM NH4HCO3/50 mM HEPES, pH 7.0, 30° C.): up to 50%; organic solvent content at which stable ([3]; acetonitrile, dioxane, or tetrahydrofuran): below 60%; Km [5]: 500 µM
